Data on 32 compounds can be found in patent US9150588B2, “Substituted pyridazin-4(1H)-ones as phosphodiesterase 10A inhibitors” (TAKEDA PHARMACEUTICAL COMPANY LIMITED, priority 2010, dated 2015).

The target of this test is T1, human PDE10A enzyme (Homo sapiens, UniProt Q9Y233).
T1 construct: Human PDE10A full-length gene was transfected into Sf9 or COS-7 cells; His-tag; made in house; host or cells: Sf9 or COS-7 cells
T1 sequence (Q9Y233 267-1055): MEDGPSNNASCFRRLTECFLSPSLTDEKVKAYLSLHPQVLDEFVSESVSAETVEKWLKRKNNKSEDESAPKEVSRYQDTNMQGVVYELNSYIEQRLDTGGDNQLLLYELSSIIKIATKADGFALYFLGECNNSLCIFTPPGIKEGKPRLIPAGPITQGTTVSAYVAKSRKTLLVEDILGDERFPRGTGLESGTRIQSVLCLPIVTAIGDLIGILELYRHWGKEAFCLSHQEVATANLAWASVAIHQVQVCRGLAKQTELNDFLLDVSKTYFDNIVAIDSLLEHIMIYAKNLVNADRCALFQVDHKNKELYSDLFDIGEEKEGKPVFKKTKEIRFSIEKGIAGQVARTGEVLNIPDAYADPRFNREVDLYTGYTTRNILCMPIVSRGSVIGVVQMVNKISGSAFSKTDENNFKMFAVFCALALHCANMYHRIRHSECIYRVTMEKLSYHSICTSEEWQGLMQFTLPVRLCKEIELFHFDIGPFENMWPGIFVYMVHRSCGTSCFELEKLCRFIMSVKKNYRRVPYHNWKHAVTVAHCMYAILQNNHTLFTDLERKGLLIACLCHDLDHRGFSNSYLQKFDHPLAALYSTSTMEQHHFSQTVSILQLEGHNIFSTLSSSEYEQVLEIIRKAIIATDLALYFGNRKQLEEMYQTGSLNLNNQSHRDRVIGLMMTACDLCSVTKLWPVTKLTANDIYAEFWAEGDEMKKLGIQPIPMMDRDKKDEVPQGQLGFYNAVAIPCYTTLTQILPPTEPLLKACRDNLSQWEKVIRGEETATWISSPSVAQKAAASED
The experiment in a line: PDE10A Enzyme Activity Inhibition Test (SPA, [3H]cGMP substrate). The settings on record: at 100 nM compound; read-out: PDE10A enzyme activity inhibition rate. The test is classed as biochemical. The protocol:
PDE10A Enzyme Activity Inhibition Test
Human PDE10A full-length gene was transfected into Sf9 or COS-7 cells, the cells were disrupted and centrifuged, and human PDE10A enzyme was obtained from the residue. The enzyme extracted from Sf9 cells was partially purified using His-tag affinity column. The enzyme was stored at −70° C. until use. The PDE activity was measured using an SPA (Scintillation Proximity Assay) (GE Healthcare). To measure the inhibitory activity of the compound, 10 μL of serially diluted compound was reacted with 20 μL of PDE enzyme in an assay buffer (50 mM HEPES-NaOH, 8.3 mM MgCl2, 1.7 mM EGTA, 0.1% BSA (pH 7.4)) for 30 min at room temperature. The final concentration of DMSO in the reaction mixture was 1 percent. The compounds were evaluated in duplicate in 96-well half-area plates (Corning). To start the reaction, 10 μL of substrate [^3H] cGMP (25 and 50 nM; GE Healthcare and PerkinElmer, respectively) was added to 40 μL. After 60 min of reaction at room temperature, yttrium SPA beads containing zinc sulphate were added (6 mg/mL, 20 μL) to terminate the PDE reaction. After standing still for 1 hr, the measurement was performed using a scintillation counter (PerkinElmer) and the PDE10A enzyme activity inhibition rate was calculated. The inhibition rate was calculated based on the control containing enzyme and DMSO as 0% and the control without enzyme as 100%.
Usually inhibition stands for how much of the control response was suppressed. Take `O=c1c(-c2ccnn2-c2ccccc2)nn(-c2cccc(C(F)(F)F)c2)c2ccoc12` [Example 1, 3-(1-phenyl-1H-pyrazol-5-yl)-1-[3-(trifluoromethyl)phenyl]furo[3,2-c]pyridazin-4(1H)-one]: the inhibition at 0.1 µM was no less than 50%. As to `O=c1c(-c2ccnn2-c2ccccc2)nn(-c2cccc(C(F)(F)F)c2)c2c1OCC2` [Example 2, 3-(1-phenyl-1H-pyrazol-5-yl)-1-[3-(trifluoromethyl)phenyl]-6,7-dihydrofuro[3,2-c]pyridazin-4(1H)-one], the inhibition at 0.1 µM was no less than 50%. Turning to `O=c1cc2n(nc1-c1ccnn1-c1ccccc1)-c1ccccc1OC2` [Example 11, 2-(1-phenyl-1H-pyrazol-5-yl)pyridazino[6,1-c][1,4]benzoxazin-3(5H)-one], the inhibition at 0.1 µM was no less than 50%. With `COc1c(-c2ccnn2-c2ccccc2)oc(-c2ccccc2)cc1=O` [Example 12, 3-methoxy-6-phenyl-2-(1-phenyl-1H-pyrazol-5-yl)-4H-pyran-4-one], the inhibition at 0.1 µM is less than 50%. Consider `O=c1[nH]cc(-c2ccccc2)nc1-c1ccnn1-c1ccccc1` [Example 13, 5-phenyl-3-(1-phenyl-1H-pyrazol-5-yl)pyrazin-2(1H)-one], for which the inhibition at 0.1 µM is less than 50%. For the compound `O=c1cc(-c2ccccc2)oc(-c2ccnn2-c2ccccc2)c1O` [Example 14, 3-hydroxy-6-phenyl-2-(1-phenyl-1H-pyrazol-5-yl)-4H-pyran-4-one], the inhibition at 0.1 µM was less than 50%. Turning to `O=c1[nH]nc(-c2ccccc2)cc1-c1ccnn1-c1ccccc1` [Example 15, 6-phenyl-4-(1-phenyl-1H-pyrazol-5-yl)pyridazin-3(2H)-one], the inhibition at 0.1 µM was less than 50%. On to `O=c1[nH]cc(-c2ccccc2)cc1-c1ccnn1-c1ccccc1` [Example 16, 5-phenyl-3-(1-phenyl-1H-pyrazol-5-yl)pyridin-2(1H)-one], for which the inhibition at 0.1 µM was no less than 50%. As for `O=c1cc(-c2ccnn2-c2ccccc2)nc(-c2ccccc2)[nH]1` [Example 17, 2-phenyl-6-(1-phenyl-1H-pyrazol-5-yl)pyrimidin-4(3H)-one], the inhibition at 0.1 µM is less than 50%. On to `O=c1ccn(-c2cccc(C(F)(F)F)c2)cc1-c1ccnn1-c1ccccc1` [Example 18, 3-(1-phenyl-1H-pyrazol-5-yl)-1-[3-(trifluoromethyl)phenyl]pyridin-4(1H)-one], for which the inhibition at 0.1 µM was less than 50%. As to `O=c1cnn(-c2cccc(C(F)(F)F)c2)cc1-c1ccnn1-c1ccccc1` [Example 19, 5-(1-phenyl-1H-pyrazol-5-yl)-1-[3-(trifluoromethyl)phenyl]pyridazin-4(1H)-one], the inhibition at 0.1 µM is less than 50%. For the compound `O=c1ccc(-c2ccccc2F)cn1-c1ccnn1-c1ccccc1` [Example 20, 5-(2-fluorophenyl)-1-(1-phenyl-1H-pyrazol-5-yl)pyridin-2(1H)-one], the inhibition at 0.1 µM is less than 50%. On to `O=c1ccc(-c2cccc(C(F)(F)F)c2)nn1-c1ccnn1-c1ccccc1` [Example 21, 2-(1-phenyl-1H-pyrazol-5-yl)-6-[3-(trifluoromethyl)phenyl]pyridazin-3(2H)-one], for which the inhibition at 0.1 µM was less than 50%. On to `COc1cn(Cc2ccccc2)nc(-c2ccnn2-c2ccccc2)c1=O` [Example 23, 1-benzyl-5-methoxy-3-(1-phenyl-1H-pyrazol-5-yl)pyridazin-4(1H)-one], for which the inhibition at 0.1 µM is no less than 50%. As to `COc1cn(C2=CCN(Cc3ccccc3)CC2)nc(-c2ccnn2-c2ccccc2)c1=O` [Example 25, 1-(1-benzyl-1,2,3,6-tetrahydropyridin-4-yl)-5-methoxy-3-(1-phenyl-1H-pyrazol-5-yl)pyridazin-4(1H)-one], the inhibition at 0.1 µM was no less than 50%. On to `O=c1ccn(C2CCN(Cc3ccccc3)CC2)nc1-c1ccnn1-c1ccccc1` [Example 28, 1-(1-benzylpiperidin-4-yl)-3-(1-phenyl-1H-pyrazol-5-yl)pyridazin-4(1H)-one], for which the inhibition at 0.1 µM is less than 50%. The value for `O=c1ccn(C2CCN(c3ccccc3)CC2)nc1-c1ccnn1-c1ccccc1` [Example 31, 1-(1-phenylpiperidin-4-yl)-3-(1-phenyl-1H-pyrazol-5-yl)pyridazin-4(1H)-one] was no less than 50%; that for `O=c1ccn(C2CCCN(c3ccccc3)C2)nc1-c1ccnn1-c1ccccc1` (centres unmarked) [Example 46, 1-(1-phenylpiperidin-3-yl)-3-(1-phenyl-1H-pyrazol-5-yl)pyridazin-4(1H)-one] was less than 50%. Turning to `O=C(c1ccccc1)N1CCC(n2ccc(=O)c(-c3ccnn3-c3ccccc3)n2)CC1` [Example 49, 1-[1-(phenylcarbonyl)piperidin-4-yl]-3-(1-phenyl-1H-pyrazol-5-yl)pyridazin-4(1H)-one], the inhibition at 0.1 µM was less than 50%. With `COc1cn(C2CCN(c3nccs3)CC2)nc(-c2ccnn2-c2ccccc2)c1=O` [Example 53, 5-methoxy-3-(1-phenyl-1H-pyrazol-5-yl)-1-[1-(1,3-thiazol-2-yl)piperidin-4-yl]pyridazin-4(1H)-one], the inhibition at 0.1 µM is no less than 50%. Turning to `COc1cn(C2CCN(c3ncccc3C#N)CC2)nc(-c2ccnn2-c2ccccc2)c1=O` [Example 56, 2-{4-[5-methoxy-4-oxo-3-(1-phenyl-1H-pyrazol-5-yl)pyridazin-1(4H)-yl]piperidin-1-yl}pyridine-3-carbonitrile], the inhibition at 0.1 µM is no less than 50%. Take `COc1cn(C2CCc3ccccc3C2)nc(-c2ccnn2-c2ccccc2)c1=O` (centres unmarked) [Example 58, 5-methoxy-3-(1-phenyl-1H-pyrazol-5-yl)-1-(1,2,3,4-tetrahydronaphthalen-2-yl)pyridazin-4(1H)-one]: the inhibition at 0.1 µM is no less than 50%. On to `COc1cn(CC2CC2)nc(-c2ccnn2-c2ccccc2)c1=O` [Example 59, 1-(cyclopropylmethyl)-5-methoxy-3-(1-phenyl-1H-pyrazol-5-yl)pyridazin-4(1H)-one], for which the inhibition at 0.1 µM was less than 50%. The value for `COc1cn(S(=O)(=O)c2ccccc2)nc(-c2ccnn2-c2ccccc2)c1=O` [Example 60, 5-methoxy-3-(1-phenyl-1H-pyrazol-5-yl)-1-(phenylsulfonyl)pyridazin-4(1H)-one] was less than 50%; that for `COc1cn(Cc2cccc(-c3ccccc3)c2)nc(-c2ccnn2-c2ccccc2)c1=O` [Example 61, 1-(biphenyl-3-ylmethyl)-5-methoxy-3-(1-phenyl-1H-pyrazol-5-yl)pyridazin-4(1H)-one] was no less than 50%; that for `O=c1ccn(C2CCN(c3ccccc3C(F)(F)F)CC2)nc1-c1ccnn1-c1ccccc1` [Example 64, 3-(1-phenyl-1H-pyrazol-5-yl)-1-{1-[2-(trifluoromethyl)phenyl]piperidin-4-yl}pyridazin-4(1H)-one] was less than 50%. The value for `COc1cn(C2CCCc3ccccc32)nc(-c2ccnn2-c2ccccc2)c1=O` (centres unmarked) [Example 97, 5-methoxy-3-(1-phenyl-1H-pyrazol-5-yl)-1-(1,2,3,4-tetrahydronaphthalen-1-yl)pyridazin-4(1H)-one] was less than 50%; that for `COc1cn(C2CN(c3ncccc3C(F)(F)F)C2)nc(-c2ccnn2-c2ccccc2)c1=O` [Example 98, 5-methoxy-3-(1-phenyl-1H-pyrazol-5-yl)-1-{1-[3-(trifluoromethyl)pyridin-2-yl]azetidin-3-yl}pyridazin-4(1H)-one] was no less than 50%.

On to `COc1cn(Cc2ccccc2C(F)(F)F)nc(-c2ccnn2-c2ccccc2)c1=O` [Example 102, 5-methoxy-3-(1-phenyl-1H-pyrazol-5-yl)-1-[2-(trifluoromethyl)benzyl]pyridazin-4(1H)-one], for which the inhibition at 0.1 µM is less than 50%. As for `O=c1cc(-c2ccccc2)sc(-c2ccnn2-c2ccccc2)c1` [Example 140, 2-phenyl-6-(1-phenyl-1H-pyrazol-5-yl)-4H-thiopyran-4-one], the inhibition at 0.1 µM was less than 50%. For `COc1nc(-c2ccccc2)cn(-c2ccnn2-c2ccccc2)c1=O` [Example 141, 3-methoxy-5-phenyl-1-(1-phenyl-1H-pyrazol-5-yl)pyrazin-2(1H)-one], the inhibition at 0.1 µM was less than 50%. The result for `COc1cn(-c2cccc(C(F)(F)F)c2)nc(C2=NC(C)(C)C(=O)N2c2ccccc2)c1=O` [Example 142, 3-(4,4-dimethyl-5-oxo-1-phenyl-4,5-dihydro-1H-imidazol-2-yl)-5-methoxy-1-[3-(trifluoromethyl)phenyl]pyridazin-4(1H)-one] reads less than 50%.
